# Assay results from US10363261B2, “Enolase inhibitors and methods of treatment therewith” (Board of Regents, The University of Texas System, priority 2015, dated 2019).
# Several values for one entry are separate records, joined by “and”; a condition that tells them apart may be missing. Equal values may be shown once.
# How the values were obtained:
# human ENO1 = human ENO1 (Homo sapiens, UniProt P06733); experiment: Enolase enzymatic activity, NADH-linked pyruvate kinase/lactate dehydrogenase fluorescence assay, ENO1
# Chain of human ENO1 (P06733 whole entry): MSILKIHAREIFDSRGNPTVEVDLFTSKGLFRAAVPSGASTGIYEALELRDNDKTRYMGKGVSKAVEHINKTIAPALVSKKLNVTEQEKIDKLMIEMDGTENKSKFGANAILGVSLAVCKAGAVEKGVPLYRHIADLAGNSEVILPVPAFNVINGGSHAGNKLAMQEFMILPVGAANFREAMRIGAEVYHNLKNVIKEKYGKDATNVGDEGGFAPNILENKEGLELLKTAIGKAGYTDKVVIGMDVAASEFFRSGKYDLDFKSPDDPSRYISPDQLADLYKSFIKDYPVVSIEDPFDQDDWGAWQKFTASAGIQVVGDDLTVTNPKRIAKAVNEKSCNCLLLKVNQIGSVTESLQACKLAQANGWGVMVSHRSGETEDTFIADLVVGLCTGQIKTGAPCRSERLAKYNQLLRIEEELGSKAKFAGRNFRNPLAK
# Experimental: Human ENO1 and ENO2 were overexpressed in the human D423 cell line and used for enzymatic assays. Inhibitors (PhAH, SF2312 and Deoxy-SF2312, Hex, Hepta, Pom-Hex, and Fosmidomycin) were incubated with the enzyme prior to addition of 5 mM 2-PG substrate. Enzymatic activity was measured by monitoring fluorescence of NADH at 340 nm Exitation/460 nm emission using an Lactate dehydrogenase/Pyruvate kinase linked assay which links the formation of PEP to the oxidation of NADH to NAD+, as we have described in published work (Muller et al., 2012). Enzymatic activity was normalized to that in the absence of the inhibitor (set to 1) and plotted as function of inhibitor concentration.
# Enolase activity was measured using two different methods, either by a fluorometric NADH-linked assay or a direct spectrophotometric assay via formation of PEP. In the fluorescent assay, enolase activity was measured via NADH oxidation in a pyruvate kinase-lactate dehydrogenase coupled assay as previously described (Muller, et al., 2012). The assay is conducted in 10 mM KCl, 5 mM MgSO4, 100 mM triethanolamine at pH 7.4, with 400 μM NADH and 2 mM ADP. 2-Phosphoglycerate (2-PGA), pyruvate kinase (PK) and lactate dehydrogenase (LDH) are provided in excess, with conversion of 2-PGA to PEP by enolase being rate limiting. PEP (with ADP) is substrate of PK; pyruvate formed by this reaction is linked to NADH oxidation by LDH. Enolase activity is determined by measuring oxidation of NADH fluorescently by excitation at 340 nm and emission at 460 nm. The substrate concentration, if not otherwise indicated, was 5 mM 2-PGA. Fluorescence was measured using Omega Fluorescence Plate Reader (BMG Labtech). Alternatively, Enolase activity was measured directly by the appearance of PEP from 2-PGA via absorption at 240 nm (Marangos, et al., 1978). The assay medium was the same, except that all the auxiliary reagents (PK/LDH, NADH, ADP) are omitted. Both assays were conducted in a 96-well plated format with the direct assay performed in UV-transmissible plates.
# ENO2 [1] = biological target: T1, ENO2 (Homo sapiens, UniProt P09104); experiment: Enolase enzymatic activity and Michaelis-Menten kinetic analysis, ENO2
# T1 sequence (P09104 whole entry): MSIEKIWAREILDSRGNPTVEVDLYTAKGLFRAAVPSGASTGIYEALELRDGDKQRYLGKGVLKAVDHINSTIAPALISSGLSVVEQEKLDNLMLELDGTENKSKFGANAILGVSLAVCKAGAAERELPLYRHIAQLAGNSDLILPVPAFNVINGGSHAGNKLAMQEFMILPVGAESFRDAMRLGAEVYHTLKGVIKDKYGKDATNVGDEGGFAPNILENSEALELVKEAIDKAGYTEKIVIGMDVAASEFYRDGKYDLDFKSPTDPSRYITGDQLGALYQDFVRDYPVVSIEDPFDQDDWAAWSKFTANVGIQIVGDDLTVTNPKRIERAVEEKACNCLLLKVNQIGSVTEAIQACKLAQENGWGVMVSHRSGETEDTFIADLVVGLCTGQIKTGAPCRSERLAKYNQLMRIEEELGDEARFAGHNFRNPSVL
# Experimental: Human ENO1 and ENO2 were overexpressed in the human D423 cell line and used for enzymatic assays. […] Enzymatic activity was measured by monitoring fluorescence of NADH at 340 nm Exitation/460 nm emission using an Lactate dehydrogenase/Pyruvate kinase linked assay which links the formation of PEP to the oxidation of NADH to NAD+, as we have described in published work (Muller et al., 2012). Enzymatic activity was normalized to that in the absence of the inhibitor (set to 1) and plotted as function of inhibitor concentration.
# The Michaelis-Menten Kinetic analysis was performed using standard methods in the field such as those taught by Voet and Voet, 2011. The enzymatic activity of Enolase 1 or 2 v was determine over a concentration range of 10 mM to 0.5 mM 2-PG [S], in the presence of increasing concentrations of inhibitor [I].
# Native lysates of mouse tissues and human cell lines were prepared using 20 mM Tris HCl, 1 mM EDTA, and 1 mM β-mercaptoethanol at pH 7.4 and homogenized using a Polytron homogenizer three times for a period of 10 s followed by sonication, after which the lysates were cleared by centrifugation at 20,000 g for 10 minutes. Enolase activity was measured using two different methods, either by a fluorometric NADH-linked assay or a direct spectrophotometric assay via formation of PEP. In the fluorescent assay, enolase activity was measured via NADH oxidation in a pyruvate kinase-lactate dehydrogenase coupled assay as previously described (Muller, et al., 2012). The assay is conducted in 10 mM KCl, 5 mM MgSO4, 100 mM triethanolamine at pH 7.4, with 400 μM NADH and 2 mM ADP. 2-Phosphoglycerate (2-PGA), pyruvate kinase (PK) and lactate dehydrogenase (LDH) are provided in excess, with conversion of 2-PGA to PEP by enolase being rate limiting. PEP (with ADP) is substrate of PK; pyruvate formed by this reaction is linked to NADH oxidation by LDH. Enolase activity is determined by measuring oxidation of NADH fluorescently by excitation at 340 nm and emission at 460 nm. The substrate concentration, if not otherwise indicated, was 5 mM 2-PGA. Fluorescence was measured using Omega Fluorescence Plate Reader (BMG Labtech). Alternatively, Enolase activity was measured directly by the appearance of PEP from 2-PGA via absorption at 240 nm (Marangos, et al., 1978). The assay medium was the same, except that all the auxiliary reagents (PK/LDH, NADH, ADP) are omitted. Both assays were conducted in a 96-well plated format with the direct assay performed in UV-transmissible plates.
# [2] = tested on: ATP levels in D423 ENO1-deleted glioma cells; experiment: ATP content (CellTiter-Glo); assay type: cell-based, human; settings: 8 hours of treatment
# Experimental: Cell proliferation of glioma cell lines was assayed either through crystal violet staining or by live-cell confluence measurements with the IncuCyte (Essen BioScience). Growth curves using the IncuCyte were generated by confluence imaging every 4 hours with duplicate replicates with an initial seeding of 1500 cells/well in 96-well plates. At the indicated time point, cells were fixed with 10% formalin and stained with crystal violet. Dye extraction was performed using 10% acetic acid solution, and absorbance was read at 595 nm. Apoptotic cells were counted by staining with YO-PRO®-1 Iodide (491/509, Life Technologies, Y3603). Apoptotic cells become permeable to YO-PRO®-1 while live cells are not stained. Alternatively, Propidium Iodide was employed (Life Technologies) instead of YO-PRO. Total cell number was quantified by Hoechst 33342 (Cat# H3570 Invitrogen). Cells were seeded as 2×10^3 cells/well in 96-well plates and treated in the presence or absence of doxycycline. On the day of apoptosis survey, old media was removed and each well was filled to 100 μl with fresh media. Hoechst and YO-PRO®-1 were mixed in 1:100 PBS and 10 μl of the mixture was added in each well gently without touching the cells for a final dilution of 1:1000 from stock. Plates were then incubated at 37° C. for 2 hours. Image capture and quantification was done by High Content Screening System—Operetta (Perkin Elmer). ATP content was measured with the luciferase/luciferin CellTiter-Glo® assay. Briefly, 100 μl of CellTiter-Glo® assay media was added to 96-well plates containing 100 μl of media and cells. Lysis was achieved by the […] in the buffer and vigorous pipetting, and luminescence was determined using an Omega Luminescence Plate Reader (BMG Labtech). Results were expressed relative to vehicle treated control.
# [3] = tested on: lactate/glucose in D423 ENO1-rescued glioma cells; experiment: 13C-NMR tracing of uniformly labeled 13C-glucose to 13C-lactate, rescued cells; settings: even at 200 μM
# Experimental: (§1) Glucose labeled with heavy, non-radioactive, ^13C at carbon C-1 and ^13C at all carbon atoms were purchased from Cambridge Isotopes (CLM-420-1 and CLM-1396, respectively). Glucose free DMEM media was supplemented with 10 mM ^13C-1 or ^13C-all labeled Glucose. NMR metabolic tracing was performed by substituting conventional DMEM medium with glucose free DMEM medium, to which ^13C-1 glucose (Cambridge Isotopes) was supplemented at 10 mM. […] After 4 days, conditioned media was extracted with 80% methanol at −80° C., lyophilized and resuspended in D2O. Proton-decoupled ^13C NMR spectra were acquired using a 500 MHZ Bruker instrument in the M. D. Anderson NMR core facility.
# [4] = tested on: conversion of 13C-glucose to 13C-lactate in D423 ENO1-deleted glioma cells; experiment: 13C-NMR tracing of uniformly labeled 13C-glucose to 13C-lactate; settings: 48 hours, 10 mM 13C-uniformly labeled glucose
# Experimental: as §1
# ENO2 [5] = biological target: T1, ENO2; experiment: Ligand-induced thermal shift assay on cell lysates (D423 overexpressing ENO2); assay type: binding; design: expressed in transfected cells; host or cells: D423 (D423-MG) human glioma cells, clone pCMV ENO2 1x
# Experimental: Lysates: The lysates were prepared in 20 mM Tris-HCl, 1 mM EDTA and 1 mM β-mercaptoethanol at pH 7.4 and homogenized using a Polytron homogenizer three times for a period of 10 s followed by sonication, after which the lysates were cleared by centrifugation at 20,000 g for 10 minutes. Lysates were diluted (1:100) in Enolase enzymatic activity buffer as mentioned above. […] The lysates were then centrifuged at 20,000 g for 10 minutes. Supernatant and pellet were then separated and NuPage LDS Sample buffer (Life Technologies # NP0007) was added.
# As an additional test of SF2312 binding to the enolase protein, ligand-induced thermal shift assays were performed on cell lysates under the same conditions as we performed the enzymatic assay (Martinez Molina, et al., 2013). The principal of the assay is that heat-denatured proteins precipitate out of solution when their hydrophobic core is exposed. As a result, heat denatured proteins disappear from the lysate after centrifugation, whereas native properly folded proteins remain in solution. The levels of specific proteins in the supernatant, such as non-denatured proteins, are followed by immunoblotting as a function of increasing temperature.
smiles,measurement,setting,value
"O=C1C(P(=O)(O)O)CC(O)N1O (racemic) [SF2312, 3-dihydroxyphosphoryl-1,5-dihydroxy-2-pyrrolidone]",IC50,human ENO1,~20 nM
same,IC50,ENO2 [1],~20 nM
same,potency against ENO2 versus ENO1 (IC50 lower / activity greater for ENO2),ENO2 [1]; ENO2 over ENO1,10 fold
same,inhibition kinetics with respect to substrate 2-PGA,ENO2 [1]; SF2312: at IC50,non-competitive kinetics
same,concentration reducing ATP levels by >40%,[2],12.5 µM
same,fold more potent than PhAH at decreasing ATP levels,[2],~8 fold
same,effect on lactate/glucose in ENO1-rescued cells,[3],neither PhAH nor SF2312 decreased lactate/glucose
same,concentration sufficient to decrease the ratio of 13C Lactate/13C glucose by 70%,[4],6.25 µM
same,shift in the thermal denaturation of ENO2,ENO2 [5]; 1 μM inhibitor,> 7.5 °C and 7.5 °C
same,melting temperature of ENO2 with inhibitor,"ENO2 [5]; 1 μM, from ~67.5 ° C. without inhibitor",> 75 °C
